Where “and” joins values, the source holds several entries; their conditions need not be identical. Identical values can stand only once. Like-named read-outs stand apart in the source and are kept apart here. Marks after values point to notes of the source that are not given here.
Key:
[1] = tested on: complex C (poly(U)-programmed ribosomes from E. coli bearing Ac[3H]Phe-tRNA at the P-site), peptidyl transferase; experiment: Inhibition of AcPhe-puromycin synthesis (puromycin reaction, peptide bond formation); assay type: biochemical; conditions: for Ki: 25°C, buffer A
Experimental: Isolation of 70S ribosomes from E. coli K12 cells and preparation of Ac[^3H]Phe-tRNA^Phe charged to 80% were performed, as described previously ([23]). The post-translocation complex of poly(U)-programmed ribosomes (complex C), bearing tRNA^Phe at the E-site and Ac[^3H]Phe-tRNA at the P-site was prepared in buffer A (100 mM Tris-HCl pH 7.2, 6 mM (CH3COO)2Mg, 100 mM NH4Cl and 6 mM 2-mercaptoethanol). The percentage of active ribosomes in AcPhe-tRNA binding was 72%. This ribosomal population was more than 90% reactive toward puromycin.
The reaction between complex C and excess puromycin (S), a pseudo-substrate which binds to the ribosomal A-site, was performed at 25°C in buffer A and analyzed as described in detail elsewhere ([11]). Briefly, since the reaction followed first-order kinetics, the first-order rate constant kobs at each concentration of puromycin was determined by fitting the corrected x-values into Equation ([1]), (1) where x is the product Ac[^3H]Phe-puromycin expressed as the percentage of complex C radioactivity added in the reaction mixture and t the time of the reaction. kobs is related to the puromycin concentration, [S], by the relationship, (2) where kcat is the catalytic rate constant of PTase and KS the affinity constant of puromycin for complex C.
In the presence of CAM–polyamine conjugates, biphasic logarithmic time plots were obtained. The slope of the straight line through the origin was taken as the value of the apparent rate constant, kobs(early), at the early phase of the reaction, while the slope of the second straight line was taken as the value of the rate constant, kobs(late), at the late phase of the reaction.

[2] = tested on: central loop of Domain V of 23S rRNA, E. coli ribosomes; experiment: Time-resolved footprinting of PA–CAM conjugates bound to ribosomes (DMS, kethoxal, CMCT probing, primer extension); assay type: binding; conditions: conjugate at 50 × Ki, 25°C, ratio to control lane R
Experimental: Complexes RI and R*I were then probed at 37°C for 10 min with DMS, kethoxal or CMCT, as described previously ([30]). The modified sites in 23S rRNA were then analyzed by primer extension with reverse transcriptase, according to Moazed et al. ([30]). […] Extension products were run on 6% polyacrylamide/7M urea gels. Identification of the modified nucleotides, quantitative scanning of the gels and normalization of the band intensities were made as previously described ([4]). The values indicated in Table 2 denote the ratio between the normalized intensity of a band of interest and the normalized intensity of the corresponding band in the control lane (ribosomes non-treated with drugs).

[3] = tested on: human mesothelioma cells ZL34; experiment: Cell viability by trypan blue exclusion assay; assay type: cell-based; conditions: for IC50: Homo sapiens, ZL34 cells, read-out: IC50 (toxicity, cell viability)
Experimental: (§1) ZL34 and Met5A cells were plated in sterile 96-well microtiter plates at 5 × 10^4cells/ml and grown in Dulbecco's modified Eagle's medium (DMEM), provided by Sigma-Aldrich and supplemented with 5% fetal bovine serum. Cultures were maintained in a humidified atmosphere with 5% CO2, at 37°C. Solutions at the appropriate concentration of each compound were added, and then cells were grown for 24, 48, 72 and 96 h. After treatment, the drug was removed by washing the cells twice with phosphate buffered saline. The cells were then trypsinized (100 μl Trypsin-EDTA × 1 (Biosera) solution/well, 10 min at 37°C), mixed with 1 ml DMEM and collected by centrifugation at 3000 × g for 5 min. Cell viabilities were determined by the trypan blue exclusion assay, using a TC10 automated cell counter (BIO-RAD). Viable cells were expressed as a percentage of total cells.
(§2) Figure S5. Toxicity assays in ZL34 and Met5A cell lines. ZL34 or Met5A cells were plated in sterile 96-well microtiter plates at 5×10^4 cells/ml and grown in DMEM, supplemented with 5% fetal bovine serum. Cultures were maintained in a humidified atmosphere with 5% CO2, at 37°C. Solutions at the appropriate concentration of each compound were added, and then cells were grown for 24 h, 72 h and 96 h. After treatment, CAM or compound 4 was removed by washing the cells twice with PBS. The cells were then trypsinized, mixed with 1 ml DMEM and collected by centrifugation at 3,000×g for 5 min. Cell viabilities were determined by the trypan blue exclusion assay, using a TC10 automated cell counter (BIO-RAD). Viable cells were expressed as a percentage of total cells. SPD, spermidine.

[4] = tested on: immortalized human mesothelial Met5A cells; experiment: Cell viability by trypan blue exclusion assay; assay type: cell-based; conditions: for IC50: Homo sapiens, MeT-5A, Met5A cells, read-out: IC50 (toxicity, cell viability)
Experimental: as §1, §2

[5] = tested on: complex C (poly(U)-programmed ribosomes from E. coli bearing Ac[3H]Phe-tRNA at the P-site), peptidyl transferase; parameters: method as in PMID 12930958; conditions: cited from earlier work

NCCCN(CCCCN(Cc1ccccc1)Cc1ccccc1)C(=O)CCC(=O)N[C@H](CO)[C@H](O)c1ccc([N+](=O)[O-])cc1 [Compound 4]
Ki ([1]; early phase of the reaction (encounter complex CI)): 975 nM and 980 nM | Ki ([1]; late phase of the reaction (complex C*I)): 280 ± 30 nM | potency relative to CAM, based on Kik7/(k6 + k7) ([1]; overall two-step inhibition of the puromycin reaction): 3 fold | Relative reactivity of nucleoside A2058 ([2]; R*I binding state (3 min)): 1.25 ± 0.09^b,c | Relative reactivity of nucleoside A2059 ([2]; R*I binding state (3 min)): 0.60 ± 0.03^b,c | Relative reactivity of nucleoside A2062 ([2]; R*I binding state (3 min)): 0.52 ± 0.02^b,c | Relative reactivity of nucleoside A2451 ([2]; R*I binding state (3 min)): 0.53 ± 0.05^b | Relative reactivity of nucleoside A2602 ([2]; R*I binding state (3 min)): 0.88 ± 0.08 | Relative reactivity of nucleoside G2505 ([2]; R*I binding state (3 min)): 0.35 ± 0.02^b,c | Relative reactivity of nucleoside U2506 ([2]; R*I binding state (3 min)): 0.65 ± 0.04^b | Relative reactivity of nucleoside U2585 ([2]; R*I binding state (3 min)): 0.45 ± 0.02^b,c | Relative reactivity of nucleoside U2609 ([2]; R*I binding state (3 min)): 1.00 ± 0.07 | Relative reactivity of nucleoside A2058 ([2]; RI binding state (2 s)): 1.00 ± 0.05 | Relative reactivity of nucleoside A2059 ([2]; RI binding state (2 s)): 1.00 ± 0.06 | Relative reactivity of nucleoside A2062 ([2]; RI binding state (2 s)): 1.00 ± 0.05 | Relative reactivity of nucleoside A2451 ([2]; RI binding state (2 s)): 0.48 ± 0.02^b | Relative reactivity of nucleoside A2602 ([2]; RI binding state (2 s)): 1.00 ± 0.10 | Relative reactivity of nucleoside G2505 ([2]; RI binding state (2 s)): 0.65 ± 0.05^b | Relative reactivity of nucleoside U2506 ([2]; RI binding state (2 s)): 0.70 ± 0.05^b | Relative reactivity of nucleoside U2609 ([2]; RI binding state (2 s)): 1.00 ± 0.09 | IC50 [3]: 25000 ± 3000 nM | viability after rescue by exogenously added spermidine ([3]; ZL34 cells exposed to an IC50 dose of the compound, spermidine at 10 × IC50): ~95% | IC50 [4]: 60000 ± 5000 nM | rescue by exogenously added spermidine ([4]; Met5A cells exposed to an IC50 dose of the compound, spermidine at 10 × IC50): recover little of the lost viability

O=C(N[C@H](CO)[C@H](O)c1ccc([N+](=O)[O-])cc1)C(Cl)Cl [CAM, Chloramphenicol]
IC50 [3]: > 300000 nM | rescue by exogenously added spermidine ([3]; ZL34 cells treated with 300 μM compound, 3 mM spermidine): no rescue was observed | IC50 [4]: > 300000 nM | koff [5]: 0.0165 ± 0.00067 s⁻¹ | Ki ([5]; early phase): 3100 ± 300 nM | Ki ([5]; late phase): 880 ± 70 nM
